In patent US6596308B2, “Controlled release pharmaceutical composition” (Kos Pharmaceuticals, Incorporated, priority 2001, dated 2003):

Assay: dissolution release of hard shell capsule formulations, USP Basket Method (Apparatus 1)

With `CC[C@H](C)C(=O)O[C@H]1C[C@@H](C)C=C2C=C[C@H](C)[C@H](CC[C@@H]3C[C@@H](O)CC(=O)O3)[C@H]21` [lovastatin] the “time in which lovastatin was completely released (in vitro release, FIG. 2)” value (Precirol ATO5 capsule systems containing the fast hydrating Methocel polymers, water with 1% sodium dodecyl sulfate, 37° C., 100 RPM) was 4 h, the “period over which sustained release of lovastatin was obtained (in vitro release, FIG. 2)” value (Precirol ATO5 capsule systems containing the non-hydrating Ethocel, water with 1% sodium dodecyl sulfate, 37° C., 100 RPM) was 24 h and the “rank order of release rate by cellulose polymer (FIG. 1)” value (lovastatin, Compritol 888 capsule system, fastest hydrating polymers gave faster release) was “Methocel K>Methocel E>Ethocel”. For the same compound, the “release of lovastatin by type of cellulosic polymer, compritol formulation” value (lovastatin, compritol, Methocel K100M vs Ethocel P20) was “released considerably faster from a formulation of Methocel K100M than Ethocel P20”, the “release of lovastatin by type of cellulosic polymer, precirol formulation” value (lovastatin/precirol, Methocel K100M vs Ethocel P20) was “faster when the formulation contains Methocel K100M than Ethocel P20” and the “release of lovastatin by type of high melting fatty acid ester” value (same cellulose (methocel) component, prolonged period of about 24 hours) was “fastest with Precirol AT05, slowest with Compritol 888”.
